Source: patent US9791447B2, “Methods of identifying SENP1 inhibitors” (City of Hope, priority 2013, dated 2017)

Experiments:
SENP1 [1] = molecular target: T1, SENP1 (Homo sapiens (Human), UniProt Q9P0U3); test: SUMO cleavage assay (gel-based), SENP1, SUMO-2 precursor YSE substrate; assay type: biochemical
SENP2 [2] = molecular target: T2, SENP2 (Homo sapiens (Human), UniProt Q9HC62); test: SUMO cleavage assay (gel-based), SENP2, SUMO-1 precursor YSE substrate; assay type: biochemical; conditions: cleavage of SUMO-1 precursor (YSE), read-out: IC50 (μM)-SUMO1 SENP2
SENP1 [3] = molecular target: T1, SENP1; test: DUB-Glo bioluminescent assay, SENP1; assay type: biochemical; conditions: DUB-Glo substrate
Experimental: (§1) In 96-well plates, SENPs (50-200 nM) were pre-treated with increasing concentrations of each compound, after which DUB-Glo (40 μM final concentration; Promega, Madison, Wis.) was added as substrate. Experiments were performed in triplicate. The amount of cleaved product is proportional to the relative light unit (RLU), which is bioluminescence produced by luciferase catalyzed reaction of luciferin that was produced by SENP cleavage of DUB-Glo.
(§2) To determine whether other SENPs can be inhibited by this family of inhibitors, a distant SENP member, SENP7, was tested in parallel with SENP1 and SENP2 using a pentapeptide substrate that contained the Gly-Gly motif and luciferin, known as DUB-Glo (Promega, Madison, Wis.). Cleavage of luciferin by a SENP can be detected by a coupled bioluminescent assay using luciferase. The bioluminescent reporter was chosen instead of a fluorescent reporter to avoid interference by the compounds during detection.
(§3) DUB-Glo Assay. The luciferase substrate assay (DUB-Glo, Promega, Madison, Wis.) was performed according to the manufacturer's instructions. […] Luciferase output was recorded 30 min after addition of the luciferase substrate. […]

SENP1 [4] = molecular target: T1, SENP1; test: SUMO cleavage assay (gel-based), SENP1, SUMO-1 precursor YSE substrate; assay type: biochemical; conditions: cleavage of SUMO-1 precursor (YSE), read-out: IC50 (μM)-SUMO1 SENP1
SENP2 [5] = molecular target: T2, SENP2; test: DUB-Glo bioluminescent assay, SENP2; assay type: biochemical; conditions: DUB-Glo substrate
Experimental: as §1, §2, §3

SENP7 = SENP7 (Homo sapiens (Human), UniProt Q9BQF6); test: DUB-Glo bioluminescent assay, SENP7; assay type: biochemical; conditions: DUB-Glo substrate
Experimental: as §1, §2
DUB-Glo Assay. The luciferase substrate assay (DUB-Glo, Promega, Madison, Wis.) was performed according to the manufacturer's instructions. Briefly, SENPs (final concentration 50-100 nM) in Tris buffer (50 mM Tris, pH 8.0, 100 mM NaCl, 10 mM DTT) were pre-incubated (10 min, room temperature) with increasing concentrations of inhibitor (0-60 μM final concentration) followed by addition of the luciferase substrate. Luciferase output was recorded 30 min after addition of the luciferase substrate. Values are the averages of experiments performed in triplicate.

SENP2 [6] = molecular target: T2, SENP2; test: SUMO cleavage assay (gel-based), SENP2, SUMO-2 precursor YSE substrate; assay type: biochemical; conditions: cleavage of SUMO-2 precursor (YSE), read-out: IC50 (μM)-SUMO2 SENP2
HeLa cells = test: Cellular SENP inhibition: SUMOylated proteins in HeLa cells by Western blot; conditions: increasing concentrations, 48 hours

Chain of SENP7 (Q9BQF6 760-1050): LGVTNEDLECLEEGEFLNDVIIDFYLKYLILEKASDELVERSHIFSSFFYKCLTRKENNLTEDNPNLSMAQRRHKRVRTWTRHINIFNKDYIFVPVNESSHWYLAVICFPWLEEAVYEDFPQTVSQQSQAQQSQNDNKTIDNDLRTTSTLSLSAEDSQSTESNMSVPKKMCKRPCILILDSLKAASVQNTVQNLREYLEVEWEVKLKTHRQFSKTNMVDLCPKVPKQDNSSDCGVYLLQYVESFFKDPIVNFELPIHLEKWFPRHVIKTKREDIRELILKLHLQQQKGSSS
T1 sequence (Q9P0U3 419-644): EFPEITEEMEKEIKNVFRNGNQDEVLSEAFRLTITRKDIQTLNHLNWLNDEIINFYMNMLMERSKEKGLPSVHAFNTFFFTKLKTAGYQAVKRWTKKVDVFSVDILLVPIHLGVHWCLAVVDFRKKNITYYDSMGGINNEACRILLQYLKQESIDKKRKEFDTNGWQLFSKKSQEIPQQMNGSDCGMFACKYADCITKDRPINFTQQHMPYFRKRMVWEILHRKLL
T2 sequence (Q9HC62 364-589): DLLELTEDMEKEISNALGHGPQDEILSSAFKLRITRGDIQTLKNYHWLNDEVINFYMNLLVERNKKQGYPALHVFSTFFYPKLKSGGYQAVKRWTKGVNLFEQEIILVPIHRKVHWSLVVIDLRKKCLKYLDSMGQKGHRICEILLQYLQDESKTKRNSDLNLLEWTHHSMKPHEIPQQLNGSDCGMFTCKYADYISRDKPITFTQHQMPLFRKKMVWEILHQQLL

Question: How did the IC50 (SENP1 [1]; cleavage of SUMO-2 precursor (YSE), gel-based, read-out: IC50 (μM)-SUMO2 SENP1) turn out when Cc1cc(N)ccc1/N=N/c1cc(S(=O)(=O)O)c2cccc(S(=O)(=O)O)c2c1.[Na+].[Na+] [SPI-07] was run?
Answer: 17.5 ± 4.9 µM

Question: What about the “potency for inhibiting SENP1 compared with SENP2” value (SENP1 [1]; cleavage of the SUMO-2 precursor) of the same molecule?
Answer: more potent for inhibiting SENP1 than SENP2

Question: What about the IC50 (SENP2 [2]) of the same molecule?
Answer: > 60 µM

Question: And the IC50 (SENP1 [3])?
Answer: > 60 µM

Question: And the IC50 (SENP1 [4])?
Answer: > 60 µM

Question: And the IC50 (SENP2 [5])?
Answer: > 60 µM

Question: And the IC50 (SENP7)?
Answer: 1.9 ± 2.2 µM

Question: And the IC50 (SENP2 [6])?
Answer: 28.1 ± 9.2 µM

Question: Which IC50 (SENP7) does the source give for Nc1ccc2cc(S(=O)(=O)O)cc(S(=O)(=O)O)c2c1/N=N/c1ccc(S(=O)(=O)O)cc1 [SPI-09] here?
Answer: 1.9 ± 2.1 µM

Question: Nc1c(/N=N/c2ccccc2)cc(S(=O)(=O)O)c2ccccc12 [SPI-08] was tested. Which IC50 (SENP7) did it give?
Answer: 2.8 ± 1.6 µM

Question: Which results are given for Nc1ccc2ccccc2c1/N=N/c1ccc(/C=C/c2ccc(/N=N/c3c(N)ccc4ccccc34)cc2S(=O)(=O)O)c(S(=O)(=O)O)c1 [SPI-01]?
Answer: accumulation of SUMO-1 conjugates (HeLa cells): less significant effects on the accumulation of SUMO-1 conjugates; accumulation of SUMO-2/3 conjugates (HeLa cells): SUMO-2/3 conjugates accumulated in cells
